Measured values as given in article PMC10605077, “In Vitro and In Silico Antiviral Activity of Di-Halogenated Compounds Derived from L-Tyrosine against Human Immunodeficiency Virus 1 (HIV-1)” (Current Issues in Molecular Biology, 2023).

What was measured:
HIV-1 BaL (R5) = assay: Anti-HIV activity in infected TZM-bl cells (luciferase), pre- and post-infection treatment; assay type: cell-based, Human Immunodeficiency Virus Type 1 (HIV-1); conditions: for anti-HIV activity against R5 strain in words: HIV-1 BaL; for inhibition at 18 µM / inhibition at 37 µM / inhibition at 75 µM / inhibition at 150 µM / inhibition at 300 µM: read-out: Percentage inhibition of HIV-1 BaL replication
Experimental: (§1) TZM-bl cells were plated in a flat-bottom 96-well plate (Corning Inc., Corning, New York, NY, USA) at the concentration of 1.2 × 10^5 cells/well and incubated for 24 h at 37 °C before the addition or not of each compound at non-cytotoxic concentrations (pre-infection treatment). Then, 1 h later the treatment was removed, and the infection was performed by adding 10 ng/mL of HIV-1IIIB p24 (X4) or 2 ng/mL of HIV-1 BaL (R5). After 3 h, the virus was removed and washed, and the compound dilutions were added again (post-infection treatment). Additionally, three wells were left for the negative control (cells without treatment or infection), the positive control of infection (cells infected with the virus without treatment), and the positive control of inhibition (AZT). Antiviral activity was quantified 48 h after treatment by measuring luciferase activity, which is directly proportional to the number of infectious virus particles in the sample [23]. The luciferase activity was quantified via luminescence emitted by the cells using Bright-GloTM Luciferase Assay System (Promega Corp., Madison, WI, USA), following the manufacturer’s instructions. Briefly, 100 μL of the reagent was added to 100 μL of TZM-bl cells and incubated for at least 2 min, protected from light. Relative light units (RLUs) were measured using the multi-mode plate reader (Thermo ScientificTM VarioskanTM LUX). Each experimental condition was performed in triplicate in two independent experiments (n = 6). The percentage inhibition was calculated as follows: 100 − (RLU of treated cells − RLU of uninfected cells/RLU of infection control − RLU of uninfected cells) × 100.

HIV-1IIIB (X4) = assay: as above; assay type: cell-based, Human Immunodeficiency Virus Type 1 (HIV-1); conditions: TZM-bl cells; for anti-HIV activity against X4 strain in words: HIV-1IIIB; for inhibition at 18 µM / inhibition at 37 µM / inhibition at 75 µM / inhibition at 150 µM: Human immunodeficiency virus 1, TZM-bl, read-out: Percentage inhibition of HIV-1IIIB (X4 strain) replication
Experimental: as §1

MTT cytotoxicity assay = assay type: cell-based; conditions: human; TZM-bl cells, MTT, 48 h
Experimental: The in vitro cytotoxic effect of the di-halogenated compounds on TZM-bl cells was determined with the MTT (3-(4,5-Dimethylthiazol-2-yl)-2,5-diphenyltetrazolium bromide) assay (Sigma-Aldrich, St. Louis, MO, USA). For this purpose, 1.2 × 10^5 cells/well were seeded in 96-well plates, which were incubated at 37 °C and 5% CO2 for 24 h. DMEM was used as a negative control and serial two-fold dilutions of the compounds were performed at 9.37 to 300 μM in DMEM supplemented with 5% FBS. A total of 100 μL/well of each dilution was added and incubated for 48 h. Subsequently, the cells were washed 2 times with 1X PBS, and 30 μL of MTT solution (2 mg/mL) was added and incubated for 2 h at 37 °C, in a light-protected culture. Then, 100 µL of DMSO was added to dissolve the formazan crystals, placed in shaking for 15 min, and absorbance reading was performed at 570 nm, using the Microplate Spectrophotometer (Thermo Scientific™ Multiskan™ GO, Waltham, MA, USA). Two independent experiments evaluated each experimental condition in quadruplicate (n = 8). The percentage of viability was calculated concerning the absorbance of the controls without a compound (100% viability). The 50% cytotoxic concentration was defined as the concentration of each compound that can reduce cell viability to 50% of the untreated cell control. CC50 was calculated and analyzed with GraphPad Prism version 8.0.1 (GraphPad Software, Inc., San Diego, CA, USA).

[1] = Viability assay of PBMC, flow cytometry with viability dye; assay type: cell-based, Human; conditions: human, PBMC stimulated with PHA and IL-2; all concentrations tested (18.75 μM up to 150 μM), 7 days; read-out: viability level on PBMCs
Experimental: PBMCs were thawed and let in the culture in RPMI with 10% fetal bovine serum (FBS) (Gibco, Grand Island, NY, USA) for 24 h before each experiment. Cells were stimulated for 48 h with 8 μg/mL of Phytohemagglutinin-PHA (Sigma-Aldrich, St. Louis, MO, USA) and 50 UI/mL of IL-2 (Peprotech, Rocky Hill, CT, USA). In the presence of various concentrations of di-halogenated compounds derived from L-Tyrosine, 2 × 10^5 cells per well were treated and resuspended in 200 µL of fresh medium with 20 UI/mL of IL-2 and incubated in 96-well culture plates for 7 days. After 7 days post-treatment, cell viability was determined using flow cytometry. Briefly, cells were stained with fixable viability dye eFluor 506 (eBioscience, Leicestershire, UK) as detailed in the manufacturer’s protocol for 30 min in the dark. Later, cells were washed and resuspended in PBS, and the percentage of viable cells was measured instead in the LS Fortessa cytometer (BD Biosciences, Franklin Lakes, NJ, USA). Data were analyzed using FlowJo version 10.5.3 (FlowJo, LLC, Ashland, OR, USA).

[2] = tested on: HIV-GFP-VSV-G reporter virus; assay: microbe, parasite or virus in culture; assay type: cell-based, HIV-1
[3] = Human immunodeficiency virus 1, BAL, TZM-bl cells

Structure (SMILES) | anti-HIV activity against R5 strain in words (HIV-1 BaL (R5); TZM-bl cells) | inhibition at 18 µM (HIV-1 BaL (R5); [3]) [%] | inhibition at 37 µM (HIV-1 BaL (R5); [3]) [%] | inhibition at 75 µM (HIV-1 BaL (R5); [3]) [%] | inhibition at 150 µM (HIV-1 BaL (R5); [3]) [%] | anti-HIV activity against X4 strain in words (HIV-1IIIB (X4)) | inhibition at 18 µM (HIV-1IIIB (X4)) [%] | inhibition at 37 µM (HIV-1IIIB (X4)) [%] | inhibition at 75 µM (HIV-1IIIB (X4)) [%] | inhibition at 150 µM (HIV-1IIIB (X4)) [%] | CC50 at 48 h (MTT cytotoxicity assay) [µM] | IC50 (HIV-1 BaL (R5); Human immunodeficiency virus 1, BAL, TZM-bl, 48 h, HIV-1 BaL (R5), TZM-bl cells, luciferase) [µM] | inhibition at 300 µM (HIV-1 BaL (R5); [3]) [%] | SI (HIV-1 BaL (R5); selectivity index against HIV-1 BaL (CC50 and IC50 of Table 3)) | viability at 7 days [1] [%] | percentage inhibition of HIV-GFP-VSV-G replication [2] [%]
CN(C)[C@@H](Cc1cc(Br)c(O)c(Br)c1)C(=O)O [TDB-2M] | did not inhibit the replicative activity | -57.9 | -45.5 | -19.2 | -51.9 | did not inhibit the replicative activity | -1.3 | 15.9 | -2.9 | 2.9 |  |  |  |  |  | 
C[N+](C)(C)[C@@H](Cc1cc(Br)c(O)c(Br)c1)C(=O)O [TDB-3M] | did not inhibit the replicative activity | -20.5 | -9.6 | -18 | -61.9 | did not inhibit the replicative activity | 2.7 | 21.6 | -15.7 | -22.4 |  |  |  |  |  | 
CN(C)[C@@H](Cc1cc(Cl)c(O)c(Cl)c1)C(=O)O [TDC-2M] | showed antiviral activity |  | 33 | 37.9 | 32.3 | no antiviral activity | -4.8 | -15.4 | -39.5 | -72.2 | ~174 | 141 | 47.3 | ~1.24 |  | 
C[N+](C)(C)[C@@H](Cc1cc(Cl)c(O)c(Cl)c1)C(=O)O [TDC-3M] | showed antiviral activity |  | 20.4 | 39.7 | 29.6 | no antiviral activity | -111 | 9.6 | 8.1 | 15.1 | > 300 |  | 25.9 |  |  | 
COc1c(Br)cc(C[C@@H](C(=O)O)[N+](C)(C)C)cc1Br [TODB-3M] | showed no activity | -26 | -43.3 | -17.7 | -9.2 | showed no activity | 12 | -41.1 | 3.2 | -34 |  |  |  |  |  | 
COc1c(Cl)cc(C[C@@H](C(=O)O)[N+](C)(C)C)cc1Cl [TODC-3M] |  |  | 54.9 | 37.6 | 46.7 |  | -1.3 | -6.9 | 26.7 | 14.9 | 74.9 |  | 59.9 |  | > 90 | 19.5
